pIC50: −log10 of the molar value.
Target: T1, IDO1 (Homo sapiens, UniProt P14902)
T1 construct: endogenous in cells; host or cells: HeLa cells (ATCC), IDO1 induced with 10 ng/mL IFNgamma
Experiment: IDO1 cell-based assay
Conditions: HeLa cells, 10 ng/mL IFNgamma, 24 hours with test compound; N-Formyl Kynurenine and L-tryptophan quantified by RFMS

T1 sequence (P14902 whole entry): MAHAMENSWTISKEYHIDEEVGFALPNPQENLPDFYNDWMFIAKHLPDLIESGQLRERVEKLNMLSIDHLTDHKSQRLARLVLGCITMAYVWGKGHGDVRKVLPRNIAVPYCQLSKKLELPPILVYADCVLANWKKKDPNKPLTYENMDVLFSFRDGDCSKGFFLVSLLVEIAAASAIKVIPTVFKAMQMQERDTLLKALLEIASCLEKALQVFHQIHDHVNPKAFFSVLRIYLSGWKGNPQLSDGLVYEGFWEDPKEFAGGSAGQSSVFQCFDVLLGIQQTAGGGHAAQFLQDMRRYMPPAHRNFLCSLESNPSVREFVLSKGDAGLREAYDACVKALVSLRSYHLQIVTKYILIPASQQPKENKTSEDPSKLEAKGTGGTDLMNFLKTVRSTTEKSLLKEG

Going from `CC(C(=O)Nc1cnn(C(F)F)c1)[C@H]1[C@@H]2C[C@@H](n3cnc4cc(F)c(F)cc43)C[C@@H]21` (stereo partly drawn) [Example 47, 2-((1R,3s,5S,6r)-3-(5,6-difluoro-1H-benzo[d]-imidazol-1-yl)bicyclo-[3.1.0]hexan-6-yl)-N-(1-(difluoromethyl)-1H-pyrazol-4-yl)propanamide] to `CC(C)n1cc(-c2ccc(NC(=O)[C@@H](C)[C@H]3[C@@H]4C[C@@H](n5cnc6cc(F)c(F)cc65)C[C@@H]43)cc2)cn1` [Example 91, (S)-2-((1R,3R,5S,6r)-3-(5,6-difluoro-1H-benzo[d]-imidazol-1-yl)bicyclo-[3.1.0]hexan-6-yl)-N-(4-(1-isopropyl-1H-pyrazol-4-yl)phenyl)propanamide], the pIC50 falls from 7.85 to 6.30 (1.55 log units). The first is the more potent here.

First: CC(C(=O)Nc1cc(C2CC2)nn1C)[C@H]1[C@@H]2C[C@@H](n3cnc4cc(F)c(F)cc43)C[C@@H]21 (stereo partly drawn) [Example 48, N-(3-cyclopropyl-1-methyl-1H-pyrazol-5-yl)-2-((1R,3s,5S,6r)-3-(5,6-difluoro-1H-benzo[d]-imidazol-1-yl)bicyclo-[3.1.0]hexan-6-yl)-propanamide]
Second: CC(C(=O)Nc1cc(C(F)(F)F)nn1C)[C@H]1[C@@H]2C[C@@H](n3cnc4cc(F)c(F)cc43)C[C@@H]21 (stereo partly drawn) [Example 55, 2-((1R,3s,5S,6r)-3-(5,6-difluoro-1H-benzo[d]-imidazol-1-yl)bicyclo-[3.1.0]hexan-6-yl)-N-(1-methyl-3-(trifluoromethyl)-1H-pyrazol-5-yl)-propanamide]
The pIC50 of the first is 0.33 log units lower: 6.23 for the first, 6.56 for the second.

Compared with `CC(C(=O)Nc1cnc2ccccn12)[C@H]1[C@@H]2C[C@@H](n3cnc4cc(F)c(F)cc43)C[C@@H]21` (stereo partly drawn) [Example 50, 2-((1R,3s,5S,6r)-3-(5,6-difluoro-1H-benzo[d]-imidazol-1-yl)bicyclo-[3.1.0]hexan-6-yl)-N-(imidazo[1,2-a]pyridin-3-yl)propanamide], `Cc1cnc(NC(=O)C(C)[C@H]2[C@@H]3C[C@@H](n4cnc5cc(F)c(F)cc54)C[C@@H]32)cn1` (stereo partly drawn) [Example 53, 2-((1R,3s,5S,6r)-3-(5,6-difluoro-1H-benzo[d]-imidazol-1-yl)bicyclo-[3.1.0]hexan-6-yl)-N-(5-methylpyrazin-2-yl)-propanamide] is 1.67 log units higher in pIC50: 6.31 for the first, 7.98 for the second.

Going from `Cc1cc2ccc(NC(=O)C(C)[C@H]3[C@@H]4C[C@@H](n5cnc6cc(F)c(F)cc65)C[C@@H]43)cc2[nH]1` (stereo partly drawn) [Example 52, 2-((1R,3s,5S,6r)-3-(5,6-difluoro-1H-benzo[d]-imidazol-1-yl)bicyclo-[3.1.0]hexan-6-yl)-N-(2-methyl-1H-indol-6-yl)-propanamide] to `Cc1nnc(-c2ccc(NC(=O)[C@@H](C)[C@H]3[C@@H]4C[C@@H](n5cnc6cc(F)c(F)cc65)C[C@@H]43)cc2)s1` [Example 70, (S)-2-((1R,3R,5S,6r)-3-(5,6-difluoro-1H-benzo[d]-imidazol-1-yl)bicyclo-[3.1.0]hexan-6-yl)-N-(4-(5-methyl-1,3,4-thiadiazol-2-yl)phenyl)propanamide], the pIC50 falls from 7.62 to 6.62 (1.00 log units). The first is the more potent here.

Compared with `CC(C(=O)Nc1ccc(C2CC2)nc1)[C@H]1[C@@H]2C[C@@H](n3cnc4cc(F)c(F)cc43)C[C@@H]21` (stereo partly drawn) [Example 56, N-(6-cyclopropylpyridin-3-yl)-2-((1R,3s,5S,6r)-3-(5,6-difluoro-1H-benzo[d]-imidazol-1-yl)bicyclo-[3.1.0]hexan-6-yl)-propanamide], `C[C@H](C(=O)Nc1ccc(-c2ccc(F)cn2)cc1)[C@H]1[C@@H]2C[C@@H](n3cnc4cc(F)c(F)cc43)C[C@@H]21` [Example 85, (S)-2-((1R,3R,5S,6r)-3-(5,6-difluoro-1H-benzo[d]-imidazol-1-yl)bicyclo-[3.1.0]hexan-6-yl)-N-(4-(5-fluoropyridin-2-yl)phenyl)-propanamide] is 2.52 log units lower in pIC50: 8.24 for the first, 5.72 for the second.

Compared with `CC(C(=O)Nc1cnc(Br)cn1)[C@H]1[C@@H]2C[C@@H](n3cnc4cc(F)c(F)cc43)C[C@@H]21` (stereo partly drawn) [Example 57, N-(5-bromopyrazin-2-yl)-2-((1R,3s,5S,6r)-3-(5,6-difluoro-1H-benzo[d]-imidazol-1-yl)bicyclo-[3.1.0]hexan-6-yl)-propanamide], `Cc1ncc(-c2ccc(NC(=O)[C@@H](C)[C@H]3[C@@H]4C[C@@H](n5cnc6cc(F)c(F)cc65)C[C@@H]43)cc2)cn1` [Example 66, (S)-2-((1R,3R,5S,6r)-3-(5,6-difluoro-1H-benzo[d]-imidazol-1-yl)bicyclo-[3.1.0]hexan-6-yl)-N-(4-(2-methylpyrimidin-5-yl)-phenyl)propanamide] is 2.68 log units lower in pIC50: 8.62 for the first, 5.94 for the second.

`CC(C(=O)Nc1ccc(C(F)(F)F)cn1)[C@H]1[C@@H]2C[C@@H](Oc3ccnc4ccc(F)cc34)C[C@@H]21` (stereo partly drawn) [Example 59, 2-((1R,3s,5S,6r)-3-((6-fluoroquinolin-4-yl)oxy)-bicyclo[3.1.0]hexan-6-yl)-N-(5-(trifluoromethyl)-pyridin-2-yl)propanamide] and `CC(C(=O)Nc1ccc(C(F)(F)F)nc1)[C@H]1[C@@H]2C[C@@H](Oc3ccnc4ccc(F)cc34)C[C@@H]21` (stereo partly drawn) [Example 60] are within 0.2 log units of each other in pIC50: 8.43 for the first, 8.33 for the second.

First: CC(C(=O)Nc1ccc(C2CC2)nc1)[C@H]1[C@@H]2C[C@@H](Oc3ccnc4ccc(F)cc34)C[C@@H]21 (stereo partly drawn) [Example 63, N-(6-cyclopropylpyridin-3-yl)-2-((1R,3s,5S,6r)-3-((6-fluoroquinolin-4-yl)oxy)-bicyclo[3.1.0]hexan-6-yl)propanamide]
Second: CC(C(=O)Nc1nc[nH]n1)[C@H]1[C@@H]2C[C@@H](Oc3ccnc4ccc(F)cc34)C[C@@H]21 (stereo partly drawn) [Example 77, 2-((1R,3s,5S,6r)-3-((6-fluoroquinolin-4-yl)oxy)-bicyclo[3.1.0]hexan-6-yl)-N-(1H-1,2,4-triazol-3-yl)-propanamide]
The pIC50 of the first is 1.90 log units higher: 8.85 for the first, 6.95 for the second.

Compared with `C[C@H](C(=O)Nc1ccc(-c2cnn(C)c2)cc1)[C@H]1[C@@H]2C[C@@H](n3cnc4cc(F)c(F)cc43)C[C@@H]21` [Example 65, (S)-2-((1R,3R,5S,6r)-3-(5,6-difluoro-1H-benzo[d]-imidazol-1-yl)-bicyclo[3.1.0]hexan-6-yl)-N-(4-(1-methyl-1H-pyrazol-4-yl)phenyl)-propanamide], `C[C@H](C(=O)Nc1ccc(-c2cnn(CC(=O)O)c2)cc1)[C@H]1[C@@H]2C[C@@H](n3cnc4cc(F)c(F)cc43)C[C@@H]21` [Example 69, 2-(4-(4-((S)-2-((1R,3R,5S,6r)-3-(5,6-difluoro-1H-benzo[d]-imidazol-1-yl)bicyclo-[3.1.0]hexan-6-yl)-propanamido)phenyl)-1H-pyrazol-1-yl)acetic acid] is 1.51 log units lower in pIC50: 6.77 for the first, 5.26 for the second.

Compared with `Cc1ccc(-c2ccc(NC(=O)[C@@H](C)[C@H]3[C@@H]4C[C@@H](n5cnc6cc(F)c(F)cc65)C[C@@H]43)cc2)cn1` [Example 67, (S)-2-((1R,3R,5S,6r)-3-(5,6-difluoro-1H-benzo[d]-imidazol-1-yl)-bicyclo[3.1.0]hexan-6-yl)-N-(4-(6-methylpyridin-3-yl)phenyl)propanamide], `C[C@H](C(=O)Nc1ccc(-c2ccc(C#N)nc2)cc1)[C@H]1[C@@H]2C[C@@H](n3cnc4cc(F)c(F)cc43)C[C@@H]21` [Example 79, (S)-N-(4-(6-cyanopyridin-3-yl)phenyl)-2-((1R,3R,5S,6r)-3-(5,6-difluoro-1H-benzo[d]-imidazol-1-yl)bicyclo-[3.1.0]hexan-6-yl)-propanamide] is 0.52 log units lower in pIC50: 6.58 for the first, 6.06 for the second. The first is the more potent here.

Compared with `CC(C(=O)Nc1nnc(C(F)(F)F)[nH]1)[C@H]1[C@@H]2C[C@@H](Oc3ccnc4ccc(F)cc34)C[C@@H]21` (stereo partly drawn) [Example 74, 2-((1R,3s,5S,6r)-3-((6-fluoroquinolin-4-yl)oxy)-bicyclo[3.1.0]hexan-6-yl)-N-(5-(trifluoromethyl)-4H-1,2,4-triazol-3-yl)-propanamide], `CC(C(=O)Nc1ccc(C#N)nn1)[C@H]1[C@@H]2C[C@@H](Oc3ccnc4ccc(F)cc34)C[C@@H]21` (stereo partly drawn) [Example 76, N-(6-cyanopyridazin-3-yl)-2-((1R,3s,5S,6r)-3-((6-fluoroquinolin-4-yl)oxy)-bicyclo[3.1.0]hexan-6-yl)-propanamide] is 1.53 log units higher in pIC50: 6.81 for the first, 8.34 for the second. The second is the more potent here.

`Cc1nnc(-c2ccc(NC(=O)[C@@H](C)[C@H]3[C@@H]4C[C@@H](n5cnc6cc(F)c(F)cc65)C[C@@H]43)cc2)o1` [Example 81, (S)-2-((1R,3R,5S,6r)-3-(5,6-difluoro-1H-benzo[d]-imidazol-1-yl)-bicyclo[3.1.0]hexan-6-yl)-N-(4-(5-methyl-1,3,4-oxadiazol-2-yl)phenyl)-propanamide] and `C[C@H](C(=O)Nc1ccc(-c2cnc[nH]2)cc1)[C@H]1[C@@H]2C[C@@H](n3cnc4cc(F)c(F)cc43)C[C@@H]21` [Example 90, (S)-N-(4-(1H-imidazol-5-yl)phenyl)-2-((1R,3R,5S,6r)-3-(5,6-difluoro-1H-bcnzo[d]-imidazol-1-yl)bicyclo-[3.1.0]hexan-6-yl)-propanamide] are within 0.2 log units of each other in pIC50: 6.15 for the first, 6.26 for the second.

`C[C@H](C(=O)Nc1ccc(-c2ccc(C#N)cn2)cc1)[C@H]1[C@@H]2C[C@@H](n3cnc4cc(F)c(F)cc43)C[C@@H]21` [Example 83, (S)-N-(4-(5-cyanopyridin-2-yl)phenyl)-2-((1R,3R,5S,6r)-3-(5,6-difluoro-1H-benzo[d]-imidazol-1-yl)bicyclo-[3.1.0]hexan-6-yl)-propanamide] and `C[C@H](C(=O)Nc1ccc(-c2ccc(C(F)(F)F)nc2)cc1)[C@H]1[C@@H]2C[C@@H](n3cnc4cc(F)c(F)cc43)C[C@@H]21` [Example 86, (S)-2-((1R,3R,5S,6r)-3-(5,6-difluoro-1H-benzo[d]-imidazol-1-yl)bicyclo-[3.1.0]hexan-6-yl)-N-(4-(6-(trifluoromethyl)pyridin-3-yl)phenyl)propanamide] are within 0.2 log units of each other in pIC50: 6.07 for the first, 6.25 for the second.

`CC(C(=O)Nc1cc2ccccn2n1)[C@H]1[C@@H]2C[C@@H](Oc3ccnc4ccc(F)cc34)C[C@@H]21` (stereo partly drawn) [Example 87, 2-((1R,3s,5S,6r)-3-((6-fluoroquinolin-4-yl)oxy)-bicyclo[3.1.0]hexan-6-yl)-N-(pyrazolo[1,5-a]pyridin-2-yl)propanamide] showed a pIC50 of 8.52.

Reference: patent US11046649B2, “Compounds useful as inhibitors of indoleamine 2,3-dioxygenase and/or tryptophan dioxygenase” (Board of Regents, The University of Texas System, priority 2018, dated 2021)
